Experimental data: US10526294B2, “Pyrrolobenzodiazepines and conjugates thereof” (priority 2016, dated 2020)

Key:
Type in all cases: cell-based
[1] = tested on: BT474 cells; assay: Cell viability assay (CellTiter-Glo), BT474; details: Homo sapiens, BT-474, HER2 expressing cells, 72 h
Method: (§1) Cell Viability Assay for Antibody-Polymer-Drug Conjugates.
(§2) PBD compounds and conjugates thereof were evaluated for their antiproliferation properties in tumor cell lines in vitro using CellTiter-Glo® (Promega Corp). Cells were plated in black walled 96-well plate and allowed to adhere overnight at 37° C. in a humidified atmosphere of 5% CO2. BT474, SKBR3, NCI-N87 cells (HER2 expressing cells), JIMT1 cells (HER2 medium expression level cells) and MCF7 cells (HER2 low expressing levels cells) and were plated at a density of 5,000 cells per well. The next day the medium was replaced with 50 μL fresh medium and 50 μL of 2× stocks of PBD compounds or antibody-PBD conjugate were added to appropriate wells, mixed and incubated for 72 h. CellTiter-Glo® reagent was added to the wells at room temperature and the luminescent signal was measured after 10 min using a SpectraMax M5 plate reader (Molecular Devices). Dose response curves were generated using SoftMax Pro software. IC50 values were determined from four-parameter curve fitting.

[2] = tested on: SKBR3 cells; assay: Cell viability assay (CellTiter-Glo), SKBR3; details: Homo sapiens, SK-BR-3, HER2 expressing cells, 72 h
Method: as §1, §2

[3] = tested on: NCI-N87 cells; assay: Cell viability assay (CellTiter-Glo), NCI-N87; details: Homo sapiens, HER2 expressing cells, 72 h
Method: as §1, §2

[4] = tested on: JIMT1 cells; assay: Cell viability assay (CellTiter-Glo), JIMT1; details: Homo sapiens, JIMT-1, HER2 medium expression level cells, 72 h
Method: as §1, §2

[5] = tested on: MCF7 cells; assay: Cell viability assay (CellTiter-Glo), MCF7; details: Homo sapiens, HER2 low expressing levels cells, 72 h
Method: as §1, §2

Row | SMILES | IC50 ([1]; PBD compounds (Table I)) [nM] | IC50 ([2]; PBD compounds (Table I)) [nM] | IC50 ([3]; PBD compounds (Table I)) [nM] | IC50 ([4]; PBD compounds (Table I)) [nM] | IC50 ([5]; PBD compounds (Table I)) [nM] | IC50 ([1]; conjugates (Table II)) [nM] | IC50 ([2]; conjugates (Table II)) [nM] | IC50 ([3]; conjugates (Table II)) [nM] | IC50 ([5]; conjugates (Table II)) [nM] | IC50 ([4]; conjugates (Table II)) [nM]
1 | C=C1C[C@H]2C=Nc3cc(OCCCC(=O)Nc4cn(C)c(C(=O)Nc5ccc(-c6nc7ccc(N)cc7[nH]6)cc5)n4)c(OC)cc3C(=O)N2C1 [Compound 9, (S,Z)—N-(4-(5-amino-1H-benzo[d]imidazol-2-yl)phenyl)-4-(4-(7-methoxy-2-methylene-5-oxo-2,3,5,11a-tetrahydro-1H-benzo[e]pyrrolo[1,2-a][1,4]diazepin-8-yloxy)butanamido)-1-methyl-1H-imidazole-2-carboxamide] | 4 | 0.3 | 0.9 | 0.7 | 1.6 | – | – | – | – | –
2 | C=C1C[C@H]2C=Nc3cc(OCCCC(=O)Nc4cn(C)c(C(=O)Nc5ccc(-c6cc7cc(N)ccc7[nH]6)cc5)n4)c(OC)cc3C(=O)N2C1 [Compound 18, (S)—N-(4-(5-amino-1H-indol-2-yl)phenyl)-4-(4-((7-methoxy-2-methylene-5-oxo-2,3,5,11a-tetrahydro-1H-benzo[e]pyrrolo[1,2-a][1,4]diazepin-8-yl)oxy)butanamido)-1-methyl-1H-imidazole-2-carboxamide] | 0.5 | 0.08 | 0.2 | 0.2 | 0.7 | – | – | – | – | –
3 | C=C1C[C@H]2C=Nc3cc(OCCCC(=O)Nc4cn(C)c(C(=O)Nc5cc(C(=O)Nc6ccc(-c7nc8cc(N)ccc8[nH]7)cc6)n(C)c5)n4)c(OC)cc3C(=O)N2C1 [Compound 24, (S,Z)—N-(5-(4-(5-amino-1H-benzo[d]imidazol-2-yl)phenylcarbamoyl)-1-methyl-1H-pyrrol-3-yl)-4-(4-(7-methoxy-2-methylene-5-oxo-2,3,5,11a-tetrahydro-1H-benzo[e]pyrrolo[1,2-a][1,4]diazepin-8-yloxy)butanamido)-1-methyl-1H-imidazole-2-carboxamide] | 21 | 1 | 3 | 1.8 | 34 | – | – | – | – | –
4 | C=C1C[C@H]2C=Nc3cc(OCCCC(=O)Nc4cc(-c5nc6ccc(N)cc6[nH]5)n(C)c4)c(OC)cc3C(=O)N2C1 [Compound 27, (S,Z)—N-(5-(6-amino-1H-benzo[d]imidazol-2-yl)-1-methyl-1H-pyrrol-3-yl)-4-(7-methoxy-2-methylene-5-oxo-2,3,5,11a-tetrahydro-1H-benzo[e]pyrrolo[1,2-a][1,4]diazepin-8-yloxy)butanamide] | 27.3 | 6.1 | 13 | 9 | 26 | – | – | – | – | –
5 | C=C1CC2C=Nc3cc(OCCCC(=O)Nc4cn(C)c(C(=O)Nc5ccc(-c6nc7ccc(C(=O)OC)cc7[nH]6)cc5)n4)c(OC)cc3C(=O)N2C1 (stereo not shown) [Compound 33, (Z)-methyl 2-(4-(4-(4-(7-methoxy-2-methylene-5-oxo-2,3,5,11a-tetrahydro-1H-benzo[e]pyrrolo[1,2-a][1,4]diazepin-8-yloxy)butanamido)-1-methyl-1H-imidazole-2-carboxamido)phenyl)-1H-benzo[d]imidazole-6-carboxylate] | 3.1 | 0.3 | 0.9 | 0.3 | 3.4 | – | – | – | – | –
6 | C=C1C[C@H]2C=Nc3cc(OCCCC(=O)Nc4cc(C(=O)Nc5ccc(-c6cc(C(=O)NCCCO)n(C)c6)cc5)n(C)c4)c(OC)cc3C(=O)N2C1 [Compound 37, (S,Z)—N-(3-hydroxypropyl)-4-(4-(4-(4-(7-methoxy-2-methylene-5-oxo-2,3,5,11a-tetrahydro-1H-benzo[e]pyrrolo[1,2-a][1,4]diazepin-8-yloxy)butanamido)-1-methyl-1H-pyrrole-2-carboxamido)phenyl)-1-methyl-1H-pyrrole-2-carboxamide] | 2.9 | 0.9 | 1 | 1 | 4.9 | – | – | – | – | –
7 | COc1cc2c(cc1OCCCC(=O)Nc1cc(C(=O)Nc3ccc(-c4cc(C(=O)NCCCO)n(C)c4)cc3)n(C)c1)N=C[C@@H]1CCCN1C2=O [Compound 38, (S,Z)—N-(3-hydroxypropyl)-4-(4-(4-(4-(7-methoxy-5-oxo-2,3,5,11a-tetrahydro-1H-benzo[e]pyrrolo[1,2-a][1,4]diazepin-8-yloxy)butanamido)-1-methyl-1H-pyrrole-2-carboxamido)phenyl)-1-methyl-1H-pyrrole-2-carboxamide] | 7 | 2 | 4 | 3 | 8 | – | – | – | – | –
8 | C=C1C[C@H]2C=Nc3cc(OCCCC(=O)Nc4cn(C)c(C(=O)Nc5ccc(-c6cc(C(=O)NCCCO)n(C)c6)cc5)n4)c(OC)cc3C(=O)N2C1 [Compound 39, (S)—N-(4-(5-((3-hydroxypropyl)carbamoyl)-1-methyl-1H-pyrrol-3-yl)phenyl)-4-(4-((7-methoxy-2-methylene-5-oxo-2,3,5,11a-tetrahydro-1H-benzo[e]pyrrolo[1,2-a][1,4]diazepin-8-yl)oxy)butanamido)-1-methyl-1H-imidazole-2-carboxamide] | 2.4 | 0.6 | 0.4 | 0.9 | – | – | – | – | – | –
9 | COc1cc2c(cc1OCCCC(=O)Nc1cn(C)c(C(=O)Nc3ccc(-c4cc(C(=O)NCCCO)n(C)c4)cc3)n1)N=C[C@@H]1CCCN1C2=O [Compound 40, (S,Z)—N-(4-(5-(3-hydroxypropylcarbamoyl)-1-methyl-1H-pyrrol-3-yl)phenyl)-4-(4-(7-methoxy-5-oxo-2,3,5,11a-tetrahydro-1H-benzo[e]pyrrolo[1,2-a][1,4]diazepin-8-yloxy)butanamido)-1-methyl-1H-imidazole-2-carboxamide] | 3 | 0.8 | 1.7 | 1.3 | 5.5 | – | – | – | – | –
10 | C=C1C[C@H]2C=Nc3cc(OCCCC(=O)Nc4cn(C)c(C(=O)Nc5ccc(-c6cc(C(=O)OCCCN)n(C)c6)cc5)n4)c(OC)cc3C(=O)N2C1 [Compound 41, (S,Z)-3-aminopropyl 4-(4-(4-(4-(7-methoxy-2-methylene-5-oxo-2,3,5,11a-tetrahydro-1H-benzo[e]pyrrolo[1,2-a][1,4]diazepin-8-yloxy)butanamido)-1-methyl-1H-imidazole-2-carboxamido)phenyl)-1-methyl-1H-pyrrole-2-carboxylate] | 300 | 3 | 6.3 | 0.8 | 140 | – | – | – | – | –
11 | C=C1C[C@H]2C=Nc3cc(OCCCC(=O)Nc4cn(C)c(C(=O)Nc5ccc(-c6cc(C(=O)NC[C@H](C)O)n(C)c6)cc5)n4)c(OC)cc3C(=O)N2C1 [Compound 42, N-(4-(5-((S)-2-hydroxypropylcarbamoyl)-1-methyl-1H-pyrrol-3-yl)phenyl)-4-(4-((S,Z)-7-methoxy-2-methylene-5-oxo-2,3,5,11a-tetrahydro-1H-benzo[e]pyrrolo[1,2-a][1,4]diazepin-8-yloxy)butanamido)-1-methyl-1H-imidazole-2-carboxamide] | 5.1 | 1.4 | 1.4 | 1.2 | 4.5 | – | – | – | – | –
12 | C=C1C[C@H]2C=Nc3cc(OCCCC(=O)Nc4cn(C)c(C(=O)Nc5ccc(-c6cc(C(=O)O)n(C)c6)cc5)n4)c(OC)cc3C(=O)N2C1 [Compound 43, (S,Z)-4-(4-(4-(4-(7-methoxy-2-methylene-5-oxo-2,3,5,11a-tetrahydro-1H-benzo[e]pyrrolo[1,2-a][1,4]diazepin-8-yloxy)butanamido)-1-methyl-1H-imidazole-2-carboxamido)phenyl)-1-methyl-1H-pyrrole-2-carboxylic acid] | 34.3 | 8.2 | 12 | 33.2 | 250 | – | – | – | – | –
13 | C=C1C[C@H]2C=Nc3cc(OCCCC(=O)Nc4cn(C)c(C(=O)Nc5ccc(-c6cc7cc(OC)ccc7[nH]6)cc5)n4)c(OC)cc3C(=O)N2C1 [Compound 108, (S,Z)—N-(4-(5-methoxy-1H-indol-2-yl)phenyl)-4-(4-(7-methoxy-2-methylene-5-oxo-2,3,5,11a-tetrahydro-1H-benzo[e]pyrrolo[1,2-a][1,4]diazepin-8-yloxy)butanamido)-1-methyl-1H-imidazole-2-carboxamide] | – | – | – | – | – | 0.02 | 0.05 | 0.04 | 0.43 | –
14 | C=C1CC2C=Nc3cc(OCCCC(=O)Nc4cn(C)c(C(=O)Nc5ccc(-c6cc(C(=O)n7ccc8cc(C(=O)OC)ccc87)n(C)c6)cc5)n4)c(OC)cc3C(=O)N2C1 (stereo not shown) [Compound 109, methyl 1-(4-(4-(4-(4-((7-methoxy-2-methylene-5-oxo-2,3,5,11a-tetrahydro-1H-benzo[e]pyrrolo[1,2-a][1,4]diazepin-8-yl)oxy)butanamido)-1-methyl-1H-imidazole-2-carboxamido)phenyl)-1-methyl-1H-pyrrole-2-carbonyl)-1H-indole-5-carboxylate] | – | – | – | – | – | 0.09 | – | 0.14 | 0.18 | 0.28
